In patent US20160230142A1, “CORNEAL STROMAL KERATOCYTE CULTURE” (SINGAPORE HEALTH SERVIES PTE LTD., priority 2013, published 2016):

Legend:
Format in all cases: cell-based
primary human CSKs = assay: F-actin stress fiber pattern by phalloidin staining (stress index)
Description: Cornea specimens were washed in sterile PBS (0.01 M, Invitrogen, Carlsbad, Calif., US) added with 3% antibiotics-antimycotes (penicillin S, streptomysin sulfate and amphoptericin B, Invitrogen). Central corneal buttons (1 mm from peripheral limbus) were trephined and treated with dispase II (20 mg/ml, Roche, Basal, Switzerland) to remove corneal epithelium and endothelium. The stroma tissue was trimmed into small fragments (˜1 mm^3 in size) and digested with collagenase I (0.1%, Worthington, Lakewood, N.J., US) in keratocyte basal medium (KBM) for 8 to 10 hours at 37° C. After repeat pipetting, the cell suspension was passed through cell strainer (40 μm pore size), followed by centrifugation at 400 g for 5 min at room temperature. […]
The samples were fixed with freshly prepared 2% neutral buffered paraformaldehyde (Sigma), quenched with ice-cold 50 mM ammonium chloride (Sigma) and permeabilized with 0.15% saponin (Sigma). […] Results were visualized under fluorescence microscopy (Carl Zeiss) or confocal laser-scanning microscopy (LSM 510 Meta, Carl Zeiss).
[…] The percentage of stress cells in triplicate experiments was expressed as mean±SD. Results were compared and analyzed by paired Student's t-test and Dunn-Bonferroni correction.

[1] = tested on: human CSKs (at passage 6); assay: Collagen gel contraction assay; conditions: TGFβ1 (20 ng/ml) added to KBM with 2% FBS, 48 hours
Description: Bovine type I collagen gels were made to a final concentration of 2.5 mg/ml as liquid with KBM and supplements. It was mixed with cells at a density of 10^5 cells/ml and 0.5 ml mixture was added to each well of 24-multiwell plate coated with 1% BSA. It was allowed to gelation at 37° C. for 1 hour before addition of appropriate medium. After 24 hours, the gel was released from the side of culture well with a sterile needle to initiate contraction. The collagen gel size change was recorded at 48-hour interval and measured using Image J software (NIH). The percentages of collagen gel size to the size of culture well were compared among different treatments. Experiment was done in quadruplicate and the percentages of gel contraction were represented as median and interquartile range. Intergroup significance was calculated by Mann-Whitney U test.

Smad2/3 = assay: TGFβ-mediated nuclear localization of Smad2/3 (immunofluorescence); conditions: TGFβ1 10 ng/ml, human CSKs at passage 5
Description: The samples were fixed with freshly prepared 2% neutral buffered paraformaldehyde (Sigma), quenched with ice-cold 50 mM ammonium chloride (Sigma) and permeabilized with 0.15% saponin (Sigma). After blocking with 2% bovine serum albumin (Sigma) and 2% normal goat serum (Invitrogen), the cells were incubated with primary antibody recognizing aldehyde dehydrogenase 1A1 (ALDH1A1, Proteintech), lumican (LUM, Bioss), transketolase (Tkt, Cell Signalling), αSMA (Sigma) or Alexa Fluor 543-conjugated phalloidin (Sigma), respectively. The secondary antibodies were either Alexa488 or Rhodamine Red-X-conjugated (Jackson ImmunoRes Lab, West Grove, Pa.). All nuclei were counterstained with DAPI (4′,6-diamidino-2-phenylindole, Santa Cruz) and samples were mounted in FluorShield (Sigma). Results were visualized under fluorescence microscopy (Carl Zeiss) or confocal laser-scanning microscopy (LSM 510 Meta, Carl Zeiss).
To examine if LAE (ASE) was effective in suppressing CSK transition to fibroblasts, TGFβ-mediated nuclear localization of Smad2/3 was studied.

`C[C@@H](N)[C@H]1CC[C@H](C(=O)Nc2ccncc2)CC1` [Y27632, (1R,4r)-4-((R)-1-aminoethyl)-N-(pyridin-4-yl)cyclohexanecarboxamide] was tested. Which “stress index (percentage of cells with stress fibre pattern)” value (primary human CSKs; Y27632 (10 μM) added to KBM+0.5% FBS, 5 random fields) did it give?
The value was 7.6±2.9%.

How did the “cells with stress F-actin fibre” value (primary human CSKs; IGF1-treated cells with 0.5% FBS) turn out when “IGF1: insulin-like growth factor 1 (10 ng/ml, Invitrogen)” was run?
Its value is 29.3±7.3%.

Which results are given for TGFβ1: recombinant human TGFβ1?
gel contraction (median) [1]: 91.7%; cells with nuclear Smad2/3 (Smad2/3; 3 days): 43.8%; cells with nuclear Smad2/3 (Smad2/3; incubated for 3 hours): 22%
